The numbers were not newly measured in patent publication US20110321180A1, “COMPOSITIONS AND METHODS TO GENERATE PILOSEBACEOUS UNITS” (University of Southern California, priority 2008, published 2011), which cites them from elsewhere.

For series [1] the following is noted: DMSO.
The conditions of series [2]: in published reports.
The test system of series [3] is hair germs.

As to `c1cc(-c2cnn3cc(-c4ccc(OCCN5CCCCC5)cc4)cnc23)ccn1` [Dorsomorphin], in series [1], the solubility result is “soluble in DMSO”. Moreover, the toxicity result in series [2] is on record as “low toxicity”.

B1: noggin: BMP antagonist protein, UniProt: Q13253 (protein, UniProt Q13253 28-232, looked up)
Noggin: QHYLHIRPAPSDNLPLVDLIEHPDPIFDPKEKDLNETLLRSLLGGHYDPGFMATSPPEDRPGGGGGAAGGAEDLAELDQLLRQRPSGAMPSEIKGLEFSEGLAQGKKQRLSKKLRRKLQMWLWSQTFCPVLYAWNDLGSRFWPRYVKVGSCFSKRSCSVPEGMVCKPSKSVHLTVLRWRCQRRGGQRCGWIPIQYPIISECKCSC
As to B1, the “size of hair germs” value in series [3] is recorded as “makes hair germs bigger”.
